Test results as given in patent US20130287890A1, “INHIBITOR OF THE PRODUCTION OF ADVANCED GLYCATION END PRODUCTS” (UENO FINE CHEMICALS INDUSTRY, LTD., priority 2012, published 2013).

Tests used:
fluorescent AGEs = experiment: Quantitative determination of fluorescent AGEs (relative to perylene) after reaction at 120° C. for 60 minutes; type: biochemical; conditions: for Fluorescent AGEs: 120° C., 60 minutes
Description: Amino acids, carbohydrates and a phosphate buffer solution were charged in a 30 mL glass test tube in each amount shown in Table 1, followed by sealing and stirring. […] The filtrate thus obtained was used as a sample. The amino acids and carbohydrates used are as follows. After weighing 2.5 mg of a standard substance perylene, the standard substance perylene was fully dissolved in 50 mL of deaerated ethanol added thereto to prepare a perylene solution. The perylene solution diluted to the concentration of 10 μM was exposed to excitation light with a wavelength of 386 nm and then the area was calculated by measuring a fluorescence intensity ranging from 410 to 600 nm. […] Food-derived proteins, carbohydrates and a phosphate buffer solution were charged in a 30 mL glass test tube in each amount shown in Table 6, followed by sealing and stirring, and then the mixture was reacted in an autoclave at 120° C. for 60 minutes. Next, the reactant was fractionated by centrifugation at 3,000 rpm for 3 hours using an ultrafiltration unit (VIVA SPIN 20, manufactured by Sartorius Corporation). […] Food-derived proteins and carbohydrates used are as follows: After 0.4 g of a high molecular weight fraction and 8 mL of 6N hydrochloric acid were charged in an ampule and the air in the ampule was replaced with nitrogen, hydrolysis was performed at 110° C. for 16 hours in a heat block. After reaction, 8 mL of 5N sodium hydroxide was added, and pH was adjusted using 1N hydrochloric acid and 1N sodium hydroxide to make pH within a range of 7.2 to 7.6. […] Using the thus obtained filtrate as a sample, fluorescent AGEs were quantitatively determined using the following methods. After weighing 2.5 mg of a standard substance perylene, the standard substance perylene was fully dissolved in 10 mL of deaerated ethanol added thereto to prepare a perylene solution. The perylene solution diluted to the concentration of 10 μM was exposed to excitation light with a wavelength of 386 nm and then the area was calculated by measuring a fluorescence intensity ranging from 410 to 600 nm.

3-DG = experiment: Quantitative determination of 3-DG (HPLC) after reaction of amino acids or food-derived proteins with carbohydrates at 120° C. for 60 minutes; type: biochemical; conditions: for 3-DG: 120° C., 60 minutes
Description: Amino acids, carbohydrates and a phosphate buffer solution were charged in a 30 mL glass test tube in each amount shown in Table 1, followed by sealing and stirring. After reacting in an autoclave at 120° C. for 60 minutes, the reaction solution was cooled and then filtered through a 0.2 μm filter. The filtrate thus obtained was used as a sample. The amino acids and carbohydrates used are as follows.
To 2 mL of a sample, the same amount of a 60% perchloric acid solution was added to deproteinize the sample. The sample was neutralized with 4 mL of an aqueous saturated sodium hydrogen carbonate solution and 0.8 mL of a 0.1% methanol solution of 2,3-diaminonaphthalene was added, and then the mixture was reacted at 4° C. for 16 hours. Next, the reactant was extracted with 4.4 mL of ethyl acetate, concentrated to dryness using an evaporator, dissolved in 5 mL of methanol, and then filtered through a 0.45 μm filter. The filtrate was subjected to high-performance liquid chromatography and 3-DG was quantitatively determined under the following measurement conditions.
Injection amount: 20 μL Column: TSK-GEL, ODS-80Ts (4.6×150 mm, manufactured by TOSOH CORPORATION) Column temperature: 30° C. Mobile phase: 50 mM phosphoric acid:methanol:acetonitrile=7:1.5:1.5 Flow rate: 1 mL/min.
Food-derived proteins, carbohydrates and a phosphate buffer solution were charged in a 30 mL glass test tube in each amount shown in Table 6, followed by sealing and stirring, and then the mixture was reacted in an autoclave at 120° C. for 60 minutes. Next, the reactant was fractionated by centrifugation at 3,000 rpm for 3 hours using an ultrafiltration unit (VIVA SPIN 20, manufactured by Sartorius Corporation). The obtained low molecular weight fraction was used as a sample for determination of 3-DG, while the obtained high molecular weight fraction was used as a sample for the determination of fluorescent AGEs, RAGE agonist activity and RAGE antagonist activity. Food-derived proteins and carbohydrates used are as follows: […]

human RAGE = molecular target: T1, human RAGE (Homo sapiens, UniProt Q15109); experiment: RAGE antagonist activity of reaction samples (120° C., 60 minutes) mixed with AGE-BSA, NF-κB luciferase assay in C6 glioma cells; type: cell-based, rat; conditions: Test Example 2
T1 construct: human RAGE plasmid (including full-length human RAGE cDNA); expressed in transfected cells; host or cells: C6 glioma cells carrying pNF-κB-Luc plasmid and human RAGE plasmid
T1 sequence (Q15109 23-404): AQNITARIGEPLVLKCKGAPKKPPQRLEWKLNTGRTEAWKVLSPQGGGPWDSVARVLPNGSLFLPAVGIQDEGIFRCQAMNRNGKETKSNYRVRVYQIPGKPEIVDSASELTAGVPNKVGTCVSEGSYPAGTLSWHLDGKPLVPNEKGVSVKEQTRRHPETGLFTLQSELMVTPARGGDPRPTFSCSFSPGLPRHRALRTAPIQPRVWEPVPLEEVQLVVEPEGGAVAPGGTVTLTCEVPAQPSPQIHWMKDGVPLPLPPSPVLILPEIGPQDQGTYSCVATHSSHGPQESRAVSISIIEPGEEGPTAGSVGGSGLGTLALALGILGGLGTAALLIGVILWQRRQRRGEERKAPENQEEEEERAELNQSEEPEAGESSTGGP
Description: Food-derived proteins, carbohydrates and a phosphate buffer solution were charged in a 30 mL glass test tube in each amount shown in Table 6, followed by sealing and stirring, and then the mixture was reacted in an autoclave at 120° C. for 60 minutes. Next, the reactant was fractionated by centrifugation at 3,000 rpm for 3 hours using an ultrafiltration unit (VIVA SPIN 20, manufactured by Sartorius Corporation). The obtained low molecular weight fraction was used as a sample for determination of 3-DG, while the obtained high molecular weight fraction was used as a sample for the determination of fluorescent AGEs, RAGE agonist activity and RAGE antagonist activity. Food-derived proteins and carbohydrates used are as follows:
Using Luciferase Assay System (manufactured by Promega Corporation), evaluation of RAGE antagonist activity was performed. (Day 1) According to the methods disclosed in Diabetes, 2006, vol. 55, pp. 2510-2522, C6 glioma cells into which pNF-κB-Luc plasmid (manufactured by Stratagene Corporation) and human RAGE plasmid (including full-length human RAGE cDNA) have been introduced were seeded at 100 μL/well into a 96-well plate and cultured in a CO2 incubator until the cells were confluent. For the culture, 10% FBS/DMEM medium was used. (Day 2) The medium was removed, and after wells were washed with 300 μL of serum-free DMEM medium, 100 μL of 0.1% FBS/DMEM medium was slowly added. Then, the medium was incubated overnight in a CO2 incubator. (Day 3) The sample was diluted using the medium, and 50 μL of the diluted sample, AGE-BSA in which AGE was formed with glyceraldehydes (50 μg/mL) as a control, and the mixture of diluted sample and AGE-BSA were added to wells. After incubation in a CO2 incubator for 4 hours, the medium was removed and wells were washed 2 times with 300 μL of PBS(−). Then, 25 μL of 1× lysis buffer was added on ice. After the plate was shaken for 15 seconds, 20 μl of lysate was charged in a new white plate. Further 100 μL of a luciferase assay reagent was added, and a fluorescence intensity was measured by a luminometer. Using 5 μl of lysate, quantitative determination of protein was also performed.

[1] = Test Example 1, lysine + arginine 0.2 g each, carbohydrate 3.40 g each
[2] = Test Example 2, gliadin 0.1 g + carbohydrate 3.4 g
[3] = Test Example 2, lactalbumin 0.05 g + carbohydrate 3.4 g
[4] = Test Example 2, lactic casein 0.01 g + carbohydrate 3.4 g
[5] = Test Example 2, ovalbumin 0.05 g + carbohydrate 3.4 g
[6] = Test Example 2, soybean casein 0.01 g + carbohydrate 3.4 g
[7] = Test Example 1, lysine + arginine 0.2 g each, carbohydrate 3.40 g each, 20 mL phosphate buffer
[8] = gliadin + carbohydrate, mixture of sample and AGE-BSA, protein 0.1 μg/mL, relative to control (AGE-BSA) = 1
[9] = lactalbumin + carbohydrate, mixture of sample and AGE-BSA, protein 10 μg/mL, relative to control (AGE-BSA) = 1
[10] = lactic casein + carbohydrate, mixture of sample and AGE-BSA, protein 1 μg/mL, relative to control (AGE-BSA) = 1
[11] = ovalbumin + carbohydrate, mixture of sample and AGE-BSA, protein 10 μg/mL, relative to control (AGE-BSA) = 1
[12] = soybean casein + carbohydrate, mixture of sample and AGE-BSA, protein 0.1 μg/mL, relative to control (AGE-BSA) = 1
[13] = Test Example 1, amino acids, compared with the test section 1 containing only sucrose
[14] = Test Example 2, ovalbumin, lactalbumin, gliadin, lactic casein and soybean casein, compared with sections containing sucrose

| SMILES | Fluorescent AGEs (fluorescent AGEs; [1]) | Fluorescent AGEs (fluorescent AGEs; [2]) | Fluorescent AGEs (fluorescent AGEs; [3]) | Fluorescent AGEs (fluorescent AGEs; [4]) | Fluorescent AGEs (fluorescent AGEs; [5]) | Fluorescent AGEs (fluorescent AGEs; [6]) | 3-DG (3-DG; [7]) | 3-DG (3-DG; [2]) | 3-DG (3-DG; [3]) | 3-DG (3-DG; [4]) | 3-DG (3-DG; [5]) | 3-DG (3-DG; [6]) | RAGE antagonist activity (human RAGE; [8]) | RAGE antagonist activity (human RAGE; [9]) | RAGE antagonist activity (human RAGE; [10]) | RAGE antagonist activity (human RAGE; [11]) | RAGE antagonist activity (human RAGE; [12]) | also measured |
| --- | --- | --- | --- | --- | --- | --- | --- | --- | --- | --- | --- | --- | --- | --- | --- | --- | --- | --- |
| OC[C@H]1O[C@@](CO)(O[C@H]2O[C@H](CO)[C@@H](O)[C@H](O)[C@H]2O)[C@@H](O)[C@@H]1O [Sucrose, reference compound] | 79 nmol/1 g of amino acid | 649 nmol/1 g of protein | 119 nmol/1 g of protein | 100 nmol/1 g of protein | 168 nmol/1 g of protein | 18 nmol/1 g of protein | 151 nmol/1 g of amino acid | 2,645 nmol/1 g of protein | 4,758 nmol/1 g of protein | 22,464 nmol/1 g of protein | 4,532 nmol/1 g of protein | 24,285 nmol/1 g of protein | 1.00 | 0.58 | 1.50 | 1.80 | 1.01 |  |
| OC[C@@H](O)[C@@H](O[C@H]1O[C@H](CO)[C@@H](O)[C@H](O)[C@H]1O)[C@H](O)[C@@H](O)CO [Maltitol] | 39 nmol/1 g of amino acid | 632 nmol/1 g of protein | 105 nmol/1 g of protein | 84 nmol/1 g of protein | 136 nmol/1 g of protein | 20 nmol/1 g of protein | 36 nmol/1 g of amino acid | 240 nmol/1 g of protein | 656 nmol/1 g of protein | 2,734 nmol/1 g of protein | 523 nmol/1 g of protein | 1,446 nmol/1 g of protein | 0.90 | 0.54 | 1.42 | 1.74 | 0.99 | production of fluorescent AGEs (fluorescent AGEs; [13]): decreased; production of AGEs (fluorescent AGEs; [14]): decreased; production of 3-DG (3-DG; [13]): significantly decreased; production of 3-DG (3-DG; [14]): significantly decreased; RAGE antagonist activity (human RAGE; test sections 2 and 5 (ovalbumin, lactalbumin) compared with sections 1 and 4 containing sucrose): decreased |
